ChEMBL document CHEMBL1201862, “PubChem BioAssay data set” (2004)
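1) Cells in 96-well plates. 2) Compound, 48 h, 5 concentrations. 3) Linear interpolation between surrounding doses. 4) Unreached endpoint = highest concentration. Abbreviation: GI50, concentration required for 50% inhibition of growth.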 Calls of active or inactive are those of the source. No stated cut-off is given here; in the data, active = GI50 up to about 1.1 µM and inactive = higher.

Key:
Assay in all cases: NCI anticancer screen, dose series, 48 h
NCI-H522 = test system: NCI-H522
HOP-62 = test system: HOP-62
SW-620 = test system: SW-620
SK-MEL-5 = test system: SK-MEL-5
PC-3 = test system: PC-3
SK-MEL-28 = test system: SK-MEL-28
A549 = test system: A549
HT-29 = test system: HT-29
CCRF-CEM = test system: CCRF-CEM
M14 = test system: M14
MDA-MB-435 = test system: MDA-MB-435
T47D = test system: T47D
UACC-62 = test system: UACC-62
OVCAR-4 = test system: OVCAR-4
LOX IMVI = test system: LOX IMVI
NCI/ADR-RES = test system: NCI/ADR-RES
A498 = test system: A498
BT-549 = test system: BT-549
SR = test system: SR
SF-539 = test system: SF-539

Row | SMILES | GI50 (NCI-H522) | GI50 (HOP-62) | GI50 (SW-620) | GI50 (SK-MEL-5) | GI50 (PC-3) | GI50 (SK-MEL-28) | GI50 (A549) | GI50 (HT-29) | GI50 (CCRF-CEM) | GI50 (M14) | GI50 (MDA-MB-435) | GI50 (T47D) | GI50 (UACC-62) | GI50 (OVCAR-4) | GI50 (LOX IMVI) | GI50 (NCI/ADR-RES) | GI50 (A498) | GI50 (BT-549) | GI50 (SR) | GI50 (SF-539)
1 | O=C(O)CN(CC(=O)O)c1ccccc1 | 26.9 µM (inactive) | > 100 µM (inactive) | > 100 µM (inactive) | 84.5 µM (inactive) | 56 µM (inactive) | > 100 µM (inactive) | > 100 µM (inactive) | 59.4 µM (inactive) | 34 µM (inactive) | > 100 µM (inactive) | 70.6 µM (inactive) | 37.3 µM (inactive) | 32 µM (inactive) | 81.7 µM (inactive) | > 100 µM (inactive) | > 100 µM (inactive) | > 100 µM (inactive) | > 100 µM (inactive) | > 100 µM (inactive) | > 100 µM (inactive)
2 | COc1cc2c(cc1OCCCC(=O)Nc1cc(C(=O)NCCCN(C)C)n(C)n1)N=CC1CCCN1C2=O (stereo not given) | 5.37 µM (inactive) | > 20.8 µM (inactive) | 8.63 µM (inactive) | 5.68 µM (inactive) | 17.1 µM (inactive) | 5.46 µM (inactive) | > 19.7 µM (inactive) | 7.31 µM (inactive) |  | 8.34 µM (inactive) | 40.9 µM (inactive) | 9.66 µM (inactive) | 4.24 µM (inactive) | 6.44 µM (inactive) | 7.71 µM (inactive) | > 33.5 µM (inactive) | 2.82 µM (inactive) | 9.75 µM (inactive) | 0.213 µM (active) | 9.04 µM (inactive)
3 | CC(=O)OCC1OC(n2c(Br)nc3c2c(=O)n(C)c(=O)n3C)C(OC(C)=O)C1OC(C)=O (stereo not given) | 45.9 µM (inactive) | > 100 µM (inactive) | 76.9 µM (inactive) | 31.9 µM (inactive) | 45.8 µM (inactive) | > 100 µM (inactive) | > 100 µM (inactive) | 43.8 µM (inactive) |  | 77.1 µM (inactive) | 29.4 µM (inactive) | > 100 µM (inactive) | 67.6 µM (inactive) | 27.5 µM (inactive) | 43.2 µM (inactive) | > 100 µM (inactive) | 43 µM (inactive) | 28.8 µM (inactive) | 19.9 µM (inactive) | 59.2 µM (inactive)
4 | COC1(CC[C@@H](C)COC2OC(CO)C(O)C(O)C2O)O[C@H]2C[C@H]3[C@@H]4CC=C5C[C@@H](OC6OC(CO)C(OC7OC(C)C(O)C(O)C7O)C(O)C6OC6OC(C)C(O)C(O)C6O)CC[C@]5(C)[C@H]4CC[C@]3(C)[C@H]2[C@@H]1C (stereo not given in full) | 2.08 µM (inactive) | 2.56 µM (inactive) | 1.14 µM (inactive) | 6.12 µM (inactive) | 3.13 µM (inactive) | 2.97 µM (inactive) | 2 µM (inactive) | 2.68 µM (inactive) | 17.9 µM (inactive) | 2.55 µM (inactive) | 2.02 µM (inactive) | 6.08 µM (inactive) |  | 3.54 µM (inactive) | 1.73 µM (inactive) | 3.18 µM (inactive) | 10.2 µM (inactive) | 3.52 µM (inactive) | 25.1 µM (inactive) | 1.89 µM (inactive)
5 | C=C1C(=O)OC2/C=C(\CO)CC/C=C(\CO)CC(OC(=O)C(C)C)C12 (stereo not given) | 1.56 µM (inactive) | 19.2 µM (inactive) | 4.41 µM (inactive) | 19 µM (inactive) | 16.6 µM (inactive) | 6.27 µM (inactive) | 20.1 µM (inactive) | 14.6 µM (inactive) | 2.99 µM (inactive) | 7.53 µM (inactive) | 8.75 µM (inactive) | 4.72 µM (inactive) | 14.1 µM (inactive) | 19.4 µM (inactive) | 13.5 µM (inactive) | 17.6 µM (inactive) | 21.6 µM (inactive) | 7.94 µM (inactive) | 4.79 µM (inactive) | 14.9 µM (inactive)
6 | CC(=O)c1c2c(cc3c1CCC3)CCC2 | > 100 µM (inactive) | > 100 µM (inactive) | > 100 µM (inactive) | > 100 µM (inactive) | 55.3 µM (inactive) | > 100 µM (inactive) | > 100 µM (inactive) | > 100 µM (inactive) | 40.7 µM (inactive) | > 100 µM (inactive) | > 100 µM (inactive) | 15.4 µM (inactive) | > 100 µM (inactive) | 69.7 µM (inactive) | > 100 µM (inactive) | > 100 µM (inactive) | 36.5 µM (inactive) | > 100 µM (inactive) | > 100 µM (inactive) | > 100 µM (inactive)
7 | Cn1c2ccccc2c(=S)c2cc(NC(=O)CCCCC(=O)Nc3ccc4c(c3)c(=S)c3ccccc3n4C)ccc21 | > 100 µM (inactive) | 54.7 µM (inactive) | > 100 µM (inactive) | > 100 µM (inactive) | > 100 µM (inactive) | > 100 µM (inactive) | > 100 µM (inactive) | > 100 µM (inactive) | > 100 µM (inactive) | > 100 µM (inactive) | > 100 µM (inactive) | > 100 µM (inactive) | > 100 µM (inactive) |  | > 100 µM (inactive) | > 100 µM (inactive) | > 100 µM (inactive) | > 100 µM (inactive) | > 100 µM (inactive) | > 100 µM (inactive)
8 | CC(C)c1cc(Cl)nc(Cl)n1 | > 100 µM (inactive) |  | > 100 µM (inactive) | > 100 µM (inactive) | > 100 µM (inactive) | > 100 µM (inactive) | > 100 µM (inactive) | > 100 µM (inactive) | > 100 µM (inactive) | > 100 µM (inactive) | > 100 µM (inactive) | > 100 µM (inactive) | > 100 µM (inactive) | > 100 µM (inactive) | > 100 µM (inactive) | > 100 µM (inactive) | > 100 µM (inactive) | > 100 µM (inactive) | > 100 µM (inactive) | > 100 µM (inactive)
9 | Cc1ccnc2[nH]c3ccccc3c(=O)c12 | 15.2 µM (inactive) | 43.8 µM (inactive) | 35.9 µM (inactive) | 14 µM (inactive) | 21.8 µM (inactive) | 15.1 µM (inactive) |  | 15.7 µM (inactive) | 36.6 µM (inactive) | 26.8 µM (inactive) | 19.6 µM (inactive) | 31.3 µM (inactive) | 16.9 µM (inactive) | 29 µM (inactive) | 19.5 µM (inactive) | 28.6 µM (inactive) | 28.8 µM (inactive) | 30.1 µM (inactive) | 11.5 µM (inactive) | 17.9 µM (inactive)
10 | CCOC(=O)c1nc2cc(C(F)(F)F)ccc2nc1Oc1ccc(C#N)cc1 | > 100 µM (inactive) |  | > 100 µM (inactive) | 92.5 µM (inactive) | > 100 µM (inactive) | > 100 µM (inactive) | > 100 µM (inactive) |  | 70 µM (inactive) | > 100 µM (inactive) | > 100 µM (inactive) | 55.7 µM (inactive) | > 100 µM (inactive) | > 100 µM (inactive) | 71.8 µM (inactive) | > 100 µM (inactive) | 69.8 µM (inactive) | > 100 µM (inactive) | 60.7 µM (inactive) | > 100 µM (inactive)
11 | CC(O)C(O)C(O)C(/C=N\Nc1ccccc1)=N/Nc1ccccc1 (stereo not given) | 8.09 µM (inactive) | 14.4 µM (inactive) | 11.6 µM (inactive) | 15.1 µM (inactive) | 15.8 µM (inactive) | 16.6 µM (inactive) | 11.4 µM (inactive) | 15.9 µM (inactive) | 18.5 µM (inactive) | 13.3 µM (inactive) | 13.4 µM (inactive) | 6.21 µM (inactive) | 10 µM (inactive) |  | 4.58 µM (inactive) | 11.2 µM (inactive) | 9.02 µM (inactive) | 13.7 µM (inactive) | 17.3 µM (inactive) | 15.1 µM (inactive)
12 | Nc1ccc(-c2nc3cc(F)ccc3s2)cc1Cl | 20.5 µM (inactive) | 8.36 µM (inactive) | > 100 µM (inactive) | 25.5 µM (inactive) | 20 µM (inactive) | > 85.5 µM (inactive) | 7.46 µM (inactive) | 0.692 µM (active) | > 22.9 µM (inactive) | > 85.1 µM (inactive) | > 100 µM (inactive) | 0.0615 µM (active) | 39.7 µM (inactive) | 17.1 µM (inactive) | > 77.4 µM (inactive) | 48.9 µM (inactive) | 3.07 µM (inactive) | 8.15 µM (inactive) | 0.0382 µM (active) | 20.2 µM (inactive)
13 | CCCCc1c2c(c(C)c3c1C(=O)OC3)Oc1ccccc1O2 | 0.217 µM (active) | 1.23 µM (inactive) | 1.02 µM (active) | 0.478 µM (active) | 0.442 µM (active) | > 63.2 µM (inactive) | 1.73 µM (inactive) |  | 0.695 µM (active) | 1.22 µM (inactive) | 0.173 µM (active) | 5.11 µM (inactive) | 0.535 µM (active) | 3.56 µM (inactive) | 2.25 µM (inactive) | 0.382 µM (active) | 1.25 µM (inactive) | 6.46 µM (inactive) | 0.186 µM (active) | 0.608 µM (active)
14 | CSc1ccccc1P(CCP(c1ccccc1SC)c1ccccc1SC)c1ccccc1SC | 28.1 µM (inactive) | 8.61 µM (inactive) | 16.7 µM (inactive) | 55.5 µM (inactive) | 0.912 µM (active) | 76.2 µM (inactive) | 3.96 µM (inactive) | 1.28 µM (inactive) | 0.953 µM (active) | 24.3 µM (inactive) | 31.5 µM (inactive) | 12.4 µM (inactive) | > 86.5 µM (inactive) | 14.3 µM (inactive) | 22.6 µM (inactive) | > 93.1 µM (inactive) | 40.4 µM (inactive) | 38.7 µM (inactive) | 1.11 µM (active) | 34.1 µM (inactive)
